According to patent US20180298024A1, “CORTISTATIN ANALOGS AND USES THEREOF” (President and Fellows of Harvard College, priority 2015, published 2018):
Values joined by “and” are separate entries in the source; they are usually repeats but may differ in a detail not shown here. Identical values can stand only once. Like-named read-outs stand apart in the source and are kept apart here.

Key:
[1] = system: MOLM-14; assay: Half-maximal growth inhibition (GI50), MOLM-14; assay type: cell-based; settings: Homo sapiens, 240 h, AML, M5, MLL-AF9, read-out: GI50 (nM), day 10
Protocol: (§1) Compounds A, B, C, D, and F were tested against various cell lines to probe their broad utility against cancer. Cortistatin A (CA) was also tested against the cell lines in a head to head fashion.

[2] = system: Human AML cell line MV4;11; assay: MV4;11 disseminated leukemia model (bioluminescence); assay type: in vivo, NSG mice; settings: for Fold increase in leukemia burden 15 days after 1st dose / in vivo anti-leukemic efficacy (bioluminescence, words): NSG mice; for in vivo anti-leukemic efficacy (bioluminescence, words): compounds dosed at their highest tolerable dose; for Efficacy Rank Day 15: each compound at its own dose/schedule, data from 3 separate studies
Protocol: The in vivo anti-leukemic activity of Compounds A, B, C, D, and F was tested at the indicated doses and treatment schedules. The doses were chosen based on the compounds tolerability profile (i.e. CA was dosed at 0.16 mg/kg because higher doses caused weight loss or other tolerability issues outlined in Example 6). Human AML cell line MV4;11 expressing mCherry and luciferase were injected into NSG mice. Upon measurement of leukemia cell engraftment, treatment was initiated. Body weight and bioluminescence were measured. It has previously been shown (Shair, Nature 2015) that bioluminescence corresponds to leukemia burden. […] Moreover there was no appreciable advantage between IV or PO dosing observed.

[3] = Pharmacokinetic profile in mice (plasma, LC-MS/MS); settings: for Vd / clearance / AUC(0-inf) / Cmax / Tmax / bioavailability / concentration at 24 h: CD-1, mouse, plasma; for ½ life: CD-1 mice
Protocol: Formulation correction for salt content was not required for this study. Materials were vortexed and sonicated at room temperature following addition of vehicle. The solutions were maintained at ambient temperature stirring in the dark for at least 30 minutes prior to dose administration. The formulations were then vortexed and sonicated briefly to help ensure solubility.
Mice were selected from the Testing Facility's rodent colony. The animals were enrolled in the study based on acceptable health as determined by Testing Facility personnel on the day of test article administration. Animals were held in environmental acclimation for at least 48 hours (±6 hours) prior to dosing. Animals were maintained at temperatures between 16-26° C. (62-78° F.) with the humidity range between 30-70%. Animals in all groups were fasted overnight and food was returned 4 hours following dosing. Water was provided ad libitum throughout the study.
Whole blood samples for plasma were either collected from each animal by either direct vein puncture of the submandibular vein (survival blood collection) or by cardiac puncture following euthanasia with CO2 (terminal blood collection). […] Following collection, whole blood was placed into a tube containing K2EDTA and immediately placed on wet ice until processed for plasma. Whole blood samples were centrifuged at 2200×g for 10 minutes in a refrigerated centrifuge (5±3° C.) to isolate plasma. The samples were transferred to individual polypropylene containers and immediately placed on dry ice before storage at −70±10° C. until analysis. Plasma collected from undosed spare animals was pooled and analyzed as well.
Once collected the mouse plasma studies were quantitated using LCMS/MS spectroscopy to determine the concentration of compound. […] Eight calibration standards containing the analyte and internal standard imipramine were prepared and analyzed at the beginning and at the end of the sequence. A calibration curve was generated and sample concentrations calculated using the Quantitation software MassHunter.

[4] = system: HEL; assay: Half-maximal growth inhibition (GI50), HEL; assay type: cell-based; settings: Homo sapiens, 240 h, AML, erythroleukemia, JAK2V617F, read-out: GI50 (nM), day 10
Protocol: as §1

[5] = Tolerability study of Compound A and Compound D (body weight); assay type: in vivo, female NSG mice; settings: for initial loss in weight: 10 mg/kg dosing group (Compound A PO, Compound D IV), recovered after dosing holiday; for tolerability: doses at or below 3 mg/kg (Compound A PO, Compound D IV)
Protocol: Twenty-five female NSG mice were randomly assigned to various treatment groups as described in Table 11. All mice were treated for 7 days unless as indicated below.
On study days zero to six (seven doses), Compound A was administered via oral gavage in a volume of 10 mL/kg and Compound D was administered via intravenous injection into the lateral tail vein in a volume of 10 mL/kg. Body weights were recorded daily for fifteen days (days zero to fourteen) and animal health was assessed daily.
Mice were monitored clinically for signs of morbidity and for body weights daily. Mice showing signs of morbidity were euthanized as per study guidelines.

[6] = target: T1, CDK8 (Homo sapiens, UniProt P49336); assay: CDK8 Kd and residence time; assay type: binding
T1 sequence (P49336 whole entry): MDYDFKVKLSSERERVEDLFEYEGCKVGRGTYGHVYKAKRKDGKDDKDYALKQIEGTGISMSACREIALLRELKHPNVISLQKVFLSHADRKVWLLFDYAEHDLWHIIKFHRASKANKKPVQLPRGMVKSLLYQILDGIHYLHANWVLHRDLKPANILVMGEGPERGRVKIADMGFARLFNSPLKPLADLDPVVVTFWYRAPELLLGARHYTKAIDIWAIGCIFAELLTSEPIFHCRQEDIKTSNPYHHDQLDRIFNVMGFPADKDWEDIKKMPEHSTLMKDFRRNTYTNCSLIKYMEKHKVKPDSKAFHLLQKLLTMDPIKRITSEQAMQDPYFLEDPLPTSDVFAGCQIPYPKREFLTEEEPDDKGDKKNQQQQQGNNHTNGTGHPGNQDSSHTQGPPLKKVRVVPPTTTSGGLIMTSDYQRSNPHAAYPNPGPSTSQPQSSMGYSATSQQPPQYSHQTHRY
T1 sequence (P24863 whole entry partner): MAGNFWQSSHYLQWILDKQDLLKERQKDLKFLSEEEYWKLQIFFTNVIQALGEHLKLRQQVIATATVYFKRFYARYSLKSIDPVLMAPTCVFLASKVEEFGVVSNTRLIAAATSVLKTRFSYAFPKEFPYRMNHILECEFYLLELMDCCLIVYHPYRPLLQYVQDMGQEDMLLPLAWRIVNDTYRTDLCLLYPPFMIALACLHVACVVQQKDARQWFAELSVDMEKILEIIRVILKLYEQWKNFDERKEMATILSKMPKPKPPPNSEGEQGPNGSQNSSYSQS

[7] = system: MV4; 11; assay: Half-maximal growth inhibition (GI50), MV4; 11; assay type: cell-based; settings: Homo sapiens, 240 h, AML, M5, MLL-AF4, read-out: GI50 (nM), day 10
Protocol: as §1

[8] = target: T1, CDK8; assay: CDK8 IC50 determination (Example 9); assay type: biochemical
[9] = target: T2, Tachykinin NK1 (Homo sapiens, UniProt P25103); assay: Panlab assay, Tachykinin NK1; assay type: binding
T2 construct: Eurofins Panlabs
T2 sequence (P25103 whole entry): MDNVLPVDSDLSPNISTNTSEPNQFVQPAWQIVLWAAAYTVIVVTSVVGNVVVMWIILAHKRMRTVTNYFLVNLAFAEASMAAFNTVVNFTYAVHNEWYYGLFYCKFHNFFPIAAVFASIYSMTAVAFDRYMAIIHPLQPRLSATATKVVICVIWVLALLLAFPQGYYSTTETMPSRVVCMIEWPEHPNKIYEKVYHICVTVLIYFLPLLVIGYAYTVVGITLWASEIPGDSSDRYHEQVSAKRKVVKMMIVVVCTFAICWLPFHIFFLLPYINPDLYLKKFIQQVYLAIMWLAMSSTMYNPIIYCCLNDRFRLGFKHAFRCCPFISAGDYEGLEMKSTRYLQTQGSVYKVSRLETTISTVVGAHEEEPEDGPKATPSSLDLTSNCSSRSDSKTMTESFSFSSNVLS
Protocol: (§2) Compounds A, B, C, and D were tested in Panlab assays to evaluate potential off-target activity using standard assay kits. Methods employed in these studies have been adapted from the scientific literature to maximize reliability and reproducibility. Reference standards were run as an integral part of each assay to ensure the validity of the results obtained.
IC50 values were determined by a non-linear, least squares regression analysis using MathIQ™ (ID Business Solutions Ltd., UK). Where inhibition constants (Ki) are presented, the Ki values were calculated using the equation of Cheng and Prusoff (Cheng, Y., Prusoff, W. H., Biochem. Pharmacol. 22:3099-3108, 1973) using the observed IC50 of the tested compound, the concentration of radioligand employed in the assay, and the historical values for the KD of the ligand (obtained experimentally at Eurofins Panlabs, Inc.). Where presented, the Hill coefficient (nH), defining the slope of the competitive binding curve, was calculated using MathIQ™.

[10] = system: SET-2 AML cell line (FLAG-CDK8 WT vs FLAG-CDK8-W105M); assay: CDK8 W105M versus wild type SET-2 cell competition (flow cytometry); assay type: cell-based; settings: after 3 days and 7 days of treatment
Protocol: Compounds A, B, C, and D inhibit SET-2 AML cell line proliferation by inhibiting CDK8. ZsGreen (Clontech) and FLAG-CDK8 WT (wild type) or mCherry (Clontech) and FLAG-CDK8-W105M were expressed in SET 2 cells. The cells were mixed, the ratio of red to green fluorescence was determined by flow cytometry, and the cells were treated with the indicated compounds. After 3 days and 7 days of treatment, the ratio of red to green fluorescent cells was determined.

[11] = system: sodium channel; assay: Panlab sodium channel assay; assay type: binding; settings: 10 μM
Protocol: as §2
(§3) Compound B was tested in a subset of 30 Panlab assays that included the hits from screening Compound F in addition to the Panlab hERG and sodium channel assay. This allows direct comparison of Compound B to Compound F in terms of off-target profile.

[12] = target: hERG (Homo sapiens, UniProt Q12809); assay: Panlab hERG assay; assay type: binding; parameters: Eurofins Panlabs
hERG, sequence (Q12809 whole entry): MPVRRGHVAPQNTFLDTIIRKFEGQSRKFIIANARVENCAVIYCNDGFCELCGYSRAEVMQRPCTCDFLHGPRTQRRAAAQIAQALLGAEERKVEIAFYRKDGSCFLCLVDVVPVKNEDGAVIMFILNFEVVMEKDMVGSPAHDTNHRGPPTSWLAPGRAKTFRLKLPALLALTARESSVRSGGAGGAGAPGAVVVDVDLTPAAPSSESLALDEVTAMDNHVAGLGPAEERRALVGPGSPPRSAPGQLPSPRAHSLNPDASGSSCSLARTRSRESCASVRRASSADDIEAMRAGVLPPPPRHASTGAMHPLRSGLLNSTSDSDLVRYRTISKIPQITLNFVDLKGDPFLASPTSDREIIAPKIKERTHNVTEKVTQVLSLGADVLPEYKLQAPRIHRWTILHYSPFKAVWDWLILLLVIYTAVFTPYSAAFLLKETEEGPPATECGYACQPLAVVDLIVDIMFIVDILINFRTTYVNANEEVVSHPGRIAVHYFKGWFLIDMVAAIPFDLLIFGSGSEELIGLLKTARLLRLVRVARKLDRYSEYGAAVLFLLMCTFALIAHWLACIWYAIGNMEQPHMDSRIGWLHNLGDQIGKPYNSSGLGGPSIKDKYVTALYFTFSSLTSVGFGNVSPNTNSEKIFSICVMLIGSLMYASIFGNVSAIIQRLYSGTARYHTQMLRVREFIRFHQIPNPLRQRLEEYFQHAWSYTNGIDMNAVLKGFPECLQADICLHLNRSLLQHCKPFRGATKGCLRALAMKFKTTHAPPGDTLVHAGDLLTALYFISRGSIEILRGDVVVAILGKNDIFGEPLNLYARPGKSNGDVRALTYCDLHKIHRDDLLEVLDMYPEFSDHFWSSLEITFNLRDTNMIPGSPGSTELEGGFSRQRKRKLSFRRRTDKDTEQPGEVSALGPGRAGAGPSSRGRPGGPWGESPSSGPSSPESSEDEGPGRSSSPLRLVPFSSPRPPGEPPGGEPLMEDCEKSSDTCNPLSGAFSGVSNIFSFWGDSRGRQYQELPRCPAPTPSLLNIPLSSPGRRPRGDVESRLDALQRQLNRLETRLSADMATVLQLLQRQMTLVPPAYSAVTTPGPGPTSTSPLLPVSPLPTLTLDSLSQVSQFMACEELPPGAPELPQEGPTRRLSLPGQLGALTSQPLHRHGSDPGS
Protocol: as §2, §3

[13] = system: MKPL1; assay: Half-maximal growth inhibition (GI50), MKPL1; assay type: cell-based; settings: Homo sapiens, 240 h, AML, M7, read-out: GI50 (nM), day 10
Protocol: as §1

[14] = read-out: IC50 (nM) against CDK8, average
[15] = tested in duplicate, read-out: IC50 against CDK8, single determinations

| SMILES | GI50 [1] | in vivo anti-leukemic efficacy (bioluminescence, words) [2] | Efficacy Rank Day 15 [2] | Vd ([3]; iv, 3 mg/kg) | clearance ([3]; iv, 3 mg/kg) | AUC(0-inf) ([3]; po, 10 mg/kg) | Cmax ([3]; po, 10 mg/kg) | Tmax ([3]; po, 10 mg/kg) | bioavailability ([3]; po, 10 mg/kg) | concentration at 24 h ([3]; po, 10 mg/kg) | ½ life ([3]; IV 3 mg/kg) | ½ life ([3]; PO 10 mg/kg) | GI50 [4] | Kd [6] | GI50 [7] | IC50 [8, 14] | IC50 [8, 15] | ratio of red (CDK8 W105M) to green (wild type) fluorescent cells [10] | % inhibition, Panlab sodium channel assay [11] | inhibition at 10 µM [12] | also measured |
| --- | --- | --- | --- | --- | --- | --- | --- | --- | --- | --- | --- | --- | --- | --- | --- | --- | --- | --- | --- | --- | --- |
| C[C@]12CC=C3C=C4CC[C@@H](O)C[C@]45CC[C@]3(O5)[C@@H]1CC[C@@H]2c1ccc2ccncc2c1 [Compound A, (3S,3aR,9R,10aR,12aS,12bR)-3-(isoquinolin-7-yl)-3a-methyl-1,2,3,3a,4,7,8,9,10,11,12,12b-dodecahydro-10a,12a-epoxybenzo[4,5]cyclohepta[1,2-e]inden-9-ol] | 6 nM | similarly efficacious to Compound F | 5 | 1.12 L/kg | 18.4 mL/min/kg | 3970 ng·h/mL | 3870 nM | 0.5 h | 43.9% | 1.8 nM | 4.08 h | 3.04 h | > 1000 nM | 0.23 ± 0.02 nM | 1.5 nM | 9.9 nM | 10.6 nM and 9.3 nM | dose-dependently shifted the ratio of red to green cells | – | – | Fold increase in leukemia burden 15 days after 1st dose ([2]; 20 mpk PO Q5Dx2): 10.4 fold; AUC(0-inf) ([3]; male, po, 20 mg/kg): 7940 ng·h/mL; initial loss in weight [5]: approximately 15%; tolerability [5]: well tolerated; residence time [6]: 447 min; IC50 [9]: 5940 nM; nH (Hill coefficient), Tachykinin NK1 [9]: 1.01; Ki ([9]; Cheng and Prusoff): 4300 nM |
| C[C@]12CC=C3C=C4CC[C@@H](N5CC[C@@H](N)C5)C[C@]45CC[C@]3(O5)[C@@H]1CC[C@@H]2c1ccc2ccncc2c1 [Compound B] | 31 nM | superior in vivo efficacy as compared to Compound F | 3 | 26.6 L/kg | 31 mL/min/kg | 1060 ng·h/mL | 218 nM | 2 h | 19.8% | 26.4 nM | 18.7 h | 9.55 h | > 1000 nM | 0.19 ± 0.05 nM | 4 nM | 9.1 nM | 5.5 nM and 12.7 nM | dose-dependently shifted the ratio of red to green cells | 65% | 34% | Fold increase in leukemia burden 15 days after 1st dose ([2]; 10 mpk PO 7 on/2off/6on): 5.2 fold; AUC(0-inf) ([3]; male, po, 10 mg/kg): 1060 ng·h/mL; GI50 [13]: 2 nM |
| C[C@]12CC=C3C=C4CC[C@@H](N5CC(N)C5)C[C@]45CC[C@]3(O5)[C@@H]1CC[C@@H]2c1ccc2ccncc2c1 [Compound C] | 21 nM | superior in vivo efficacy as compared to Compound F | 2 | 26.4 L/kg | 23.7 mL/min/kg | 2970 ng·h/mL | 462 nM | 8 h | 42.3% | 82.5 nM | 14.7 h | 6.68 h | > 1000 nM | 0.22 ± 0.03 nM | 2 nM | 9.5 nM | 8.9 nM and 10.2 nM | dose-dependently shifted the ratio of red to green cells | 66% | 49% | Fold increase in leukemia burden 15 days after 1st dose ([2]; 5 mpk PO 7on/4off/4on): 2.2 fold; AUC(0-inf) ([3]; male, po, 5 mg/kg): 1480 ng·h/mL |
| C[C@]12CC=C3C=C4CC[C@@H](N5C[C@H](O)[C@@H](O)C5)C[C@]45CC[C@]3(O5)[C@@H]1CC[C@@H]2c1ccc2ccncc2c1 [Compound D] | 6 nM | superior in vivo efficacy as compared to Compound F | 1 | 5.41 L/kg | 18 mL/min/kg | 1390 ng·h/mL | 377 nM | 2 h | 15% | 7.6 nM | 6.60 h | 4.25 h | > 1000 nM | 0.2 ± 0.02 nM | 1.5 nM | 6.4 nM | 6.4 nM and 6.5 nM | dose-dependently shifted the ratio of red to green cells | 65% | 20% | Fold increase in leukemia burden 15 days after 1st dose ([2]; 3 mpk IV 7on/2off/4on then IP 2on): 1.1 fold; AUC(0-inf) ([3]; male, iv, 3 mg/kg): 2780 ng·h/mL; initial loss in weight [5]: approximately 20%; tolerability [5]: well tolerated; GI50 [13]: 1.5 nM |
